Laboratory results as given in PMC7864192 (Cancers, 2021).
Where two headings read alike, the source gives them in different places.

Key:
[1] = system: GCPA007 T2.I patient-derived AGCT cell line; test: Cell viability drug screen (Cell Titer Glo 2.0, 72 h), mono- and combination therapy, GCPA007T2.I; details: for IC50: read-out: IC50 in monotherapy
Protocol: (§1) Cell lines were seeded at a density of 500 cells/well in 40 uL in 384-well plates (Corning, NY, USA) with the Multidrop™ cell dispenser (Thermo Fischer Scientific, Waltham, MA, USA) and sealed with Breathe-Easy® membrane (Sigma-Aldrich, St. Louis, MO, USA) to prevent evaporation. The SVOG-3e line was seeded at 1000 cells/well due to contact-dependent growth requirements. For each cell line, three biological repeats and two technical repeats each were performed in order to ensure the validity of the drug screens. […] Subsequently, 11 drugs and 12 drug combinations were dispensed and all wells (excluding blanks and non-DMSO control wells) were normalized to 1% DMSO using the HP Tecan D300e Digital Dispenser (Hewlett-Packard, Palo Alto, CA, USA). All drugs were applied in linear concentration ranges (Table 2), including 16 data points to enable combination drug testing at constant ratios (Table 3). Next, the plates were covered with the Breathe-Easy membrane and incubated. After 72 h, the Multidrop dispensed 15 uL per well of Cell Titer Glo 2.0 (Thermo Fischer Scientific, Waltham, MA, USA) and plates were incubated in the dark for 10 min. After incubation, luminescence excitation was assessed in the Spectramax reader (Molecular Devices, San Jose, CA, USA) (top read, luminescence excitation at 500 nm) and raw data were processed in Microsoft Excel to subtract background luminescence. […] Screens with a Z-factor value of >0.5 were used for further analysis.
(§2) Overall cell survival (in %) was plotted against the drug concentration range of each drug (in log10[μM]) using GraphPad Prism 8.3.1. Values that exceeded 100% survival (within +20% biological deviation) were normalized to 100% survival. Similarly, values below 0% cell survival (within −20% biological deviation) were normalized to 0% survival. Values exceeding this deviation were excluded. Dose–response curves were obtained using the model “log(inhibitor) vs. variable slope (normalized response)” to fit the dose–response curves and R^2 values were used to indicate how well the model fit the data (Supplementary Materials Figures S4 and S5). […] The maximum plasma concentration (Cmax) and the plasma concentration at steady state (Css) were used as toxicity thresholds. The Cmax was utilized for drugs in which short, high-dosage time courses are required, while the Css was used for maintenance therapy regimes such as anti-hormonal treatment. […] The IC50 values were calculated based on the Chou–Talalay method using Compusyn software [55]. For anti-hormonal treatment, mostly provided as maintenance therapy, we used IC10 values in addition to the IC50.
(§3) In addition to the 11 monotherapies, 12 drug combinations were tested (Table 3) simultaneously with the individual drug treatments in the same 384-well plate. […] Synergy was evaluated using the mass action law, a systematic analysis assessing dose–response dynamics in a cost-effective manner [56, 57]. The combination index (CI) was used to indicate antagonistic (CI > 1) additive (CI = 1) and synergistic (CI < 1) effects [55].

[2] = system: GCPA096 T1.I patient-derived AGCT cell line; test: Cell viability drug screen (Cell Titer Glo 2.0, 72 h), mono- and combination therapy, GCPA096T1.I; details: for IC50: read-out: IC50 in monotherapy
[3] = system: GCPA113 T1.II patient-derived AGCT cell line; test: Cell viability drug screen (Cell Titer Glo 2.0, 72 h), mono- and combination therapy, GCPA113T1.II; details: for IC50: read-out: IC50 in monotherapy
Protocol: (§4) Cell lines were seeded at a density of 500 cells/well in 40 uL in 384-well plates (Corning, NY, USA) with the Multidrop™ cell dispenser (Thermo Fischer Scientific, Waltham, MA, USA) and sealed with Breathe-Easy® membrane (Sigma-Aldrich, St. Louis, MO, USA) to prevent evaporation. […] For each cell line, three biological repeats and two technical repeats each were performed in order to ensure the validity of the drug screens. […] Subsequently, 11 drugs and 12 drug combinations were dispensed and all wells (excluding blanks and non-DMSO control wells) were normalized to 1% DMSO using the HP Tecan D300e Digital Dispenser (Hewlett-Packard, Palo Alto, CA, USA). […] Next, the plates were covered with the Breathe-Easy membrane and incubated. After 72 h, the Multidrop dispensed 15 uL per well of Cell Titer Glo 2.0 (Thermo Fischer Scientific, Waltham, MA, USA) and plates were incubated in the dark for 10 min. After incubation, luminescence excitation was assessed in the Spectramax reader (Molecular Devices, San Jose, CA, USA) (top read, luminescence excitation at 500 nm) and raw data were processed in Microsoft Excel to subtract background luminescence. The Z-factor, a mathematical method used to quantify the quality of a drug screen based on the calculation of the separation band between the values of the positive and negative controls, was utilized to assess the quality of drug screens [54]. Screens with a Z-factor value of >0.5 were used for further analysis.
(§5) Overall cell survival (in %) was plotted against the drug concentration range of each drug (in log10[μM]) using GraphPad Prism 8.3.1. Values that exceeded 100% survival (within +20% biological deviation) were normalized to 100% survival. Similarly, values below 0% cell survival (within −20% biological deviation) were normalized to 0% survival. Values exceeding this deviation were excluded. Dose–response curves were obtained using the model “log(inhibitor) vs. variable slope (normalized response)” to fit the dose–response curves and R^2 values were used to indicate how well the model fit the data (Supplementary Materials Figures S4 and S5). […] The IC50 values were calculated based on the Chou–Talalay method using Compusyn software [55]. For anti-hormonal treatment, mostly provided as maintenance therapy, we used IC10 values in addition to the IC50.
as §3

[4] = system: KGN cells (AGCT cell line); test: Cell viability drug screen (Cell Titer Glo 2.0, 72 h), mono- and combination therapy, KGN
Protocol: KGN was cultured in conditions identical to AGCT-patient-derived cell lines.
as §1, §5

[5] = system: GCPA096 T1.II patient-derived AGCT cell line; test: Cell viability drug screen (Cell Titer Glo 2.0, 72 h), mono- and combination therapy, GCPA096T1.II; details: for IC50: 72 h, read-out: IC50 in monotherapy
Protocol: as §1, §2, §3

[6] = system: GCPA096 T1.XVI patient-derived AGCT cell line; test: Cell viability drug screen (Cell Titer Glo 2.0, 72 h), mono- and combination therapy, GCPA096T1.XVI; details: for IC50: read-out: IC50 in monotherapy
[7] = system: GCPA096 T1.V patient-derived AGCT cell line; test: Cell viability drug screen (Cell Titer Glo 2.0, 72 h), mono- and combination therapy, GCPA096T1.V; details: for IC50: 72 h, read-out: IC50 in monotherapy
Protocol: as §1, §2, §3

[8] = system: GCPA113 T1.I patient-derived AGCT cell line; test: Cell viability drug screen (Cell Titer Glo 2.0, 72 h), mono- and combination therapy, GCPA113T1.I; details: for IC50: read-out: IC50 in monotherapy
Protocol: as §4, §5, §3

[9] = system: GCPA028 T1.II patient-derived AGCT cell line; test: Cell viability drug screen (Cell Titer Glo 2.0, 72 h), mono- and combination therapy, GCPA028; details: for IC50: read-out: IC50 in monotherapy
[10] = system: GCPA113 T1.III patient-derived AGCT cell line; test: Cell viability drug screen (Cell Titer Glo 2.0, 72 h), mono- and combination therapy, GCPA113T1.III; details: for IC50: read-out: IC50 in monotherapy
Protocol: as §4, §5, §3

[11] = system: GCPA007 T2.IV patient-derived AGCT cell line; test: Cell viability drug screen (Cell Titer Glo 2.0, 72 h), mono- and combination therapy, GCPA007T2.IV; details: for IC50: read-out: IC50 in monotherapy
Protocol: as §4, §5, §3

[12] = system: GCPA096 T1.XV patient-derived AGCT cell line; test: Cell viability drug screen (Cell Titer Glo 2.0, 72 h), mono- and combination therapy, GCPA096T1.XV; details: for IC50: 72 h, read-out: IC50 in monotherapy
Protocol: (§6) Cell lines were seeded at a density of 500 cells/well in 40 uL in 384-well plates (Corning, NY, USA) with the Multidrop™ cell dispenser (Thermo Fischer Scientific, Waltham, MA, USA) and sealed with Breathe-Easy® membrane (Sigma-Aldrich, St. Louis, MO, USA) to prevent evaporation. The SVOG-3e line was seeded at 1000 cells/well due to contact-dependent growth requirements. For each cell line, three biological repeats and two technical repeats each were performed in order to ensure the validity of the drug screens. […] Subsequently, 11 drugs and 12 drug combinations were dispensed and all wells (excluding blanks and non-DMSO control wells) were normalized to 1% DMSO using the HP Tecan D300e Digital Dispenser (Hewlett-Packard, Palo Alto, CA, USA). All drugs were applied in linear concentration ranges (Table 2), including 16 data points to enable combination drug testing at constant ratios (Table 3). Next, the plates were covered with the Breathe-Easy membrane and incubated. After 72 h, the Multidrop dispensed 15 uL per well of Cell Titer Glo 2.0 (Thermo Fischer Scientific, Waltham, MA, USA) and plates were incubated in the dark for 10 min. After incubation, luminescence excitation was assessed in the Spectramax reader (Molecular Devices, San Jose, CA, USA) (top read, luminescence excitation at 500 nm) and raw data were processed in Microsoft Excel to subtract background luminescence. The Z-factor, a mathematical method used to quantify the quality of a drug screen based on the calculation of the separation band between the values of the positive and negative controls, was utilized to assess the quality of drug screens [54]. Screens with a Z-factor value of >0.5 were used for further analysis.
as §2, §3

[13] = system: GCPA108 T3.IV patient-derived AGCT cell line; test: Cell viability drug screen (Cell Titer Glo 2.0, 72 h), mono- and combination therapy, GCPA108T3.IV; details: for IC50: read-out: IC50 in monotherapy
Protocol: as §6, §2, §3

[14] = cited from earlier work; for Cmax: read-out: Cmax/Css plasma
[15] = system: aromatase inhibitor resistant metastatic breast cancer; details: everolimus added to tamoxifen; postmenopausal women; cited from earlier work
AGCT cell lines = test: Cell viability drug screen (72 h), summary over AGCT cell lines (12 patient-derived, with or without KGN); format: cell-based, human; details: everolimus with chemotherapy; 13 cell lines
Protocol: as §6, §2, §3

[16] = Homo sapiens, 72 h, read-out: IC50 in monotherapy
[17] = human maximum or steady state plasma concentration, log10 of the uM value
[18] = human plasma Cmax/Css, log10 of uM value, from phase I/II clinical trials
[19] = human plasma maximum/steady state concentration, ref phase I/II clinical trials
[20] = human plasma, maximum or steady state concentration, log10 of uM value
[21] = human plasma, log10 of uM, phase I/II trials
[22] = human maximum or steady state plasma concentration
[23] = human plasma Cmax/Css, from phase I/II clinical trials
[24] = human plasma, maximum or steady state concentration
[25] = human plasma, phase I/II trials

For `N#Cc1ccc(C(c2ccc(C#N)cc2)n2cncn2)cc1` [Letrozole], the IC50 ([1]; Homo sapiens, 72 h) was over 50 µM, the IC50 ([2]; Homo sapiens, 72 h) was over 50 µM and the IC50 ([3]; Homo sapiens, 72 h) was over 50 µM. It also gave an IC50 [4, 16] of 35.4 µM, an IC50 ([5]; Homo sapiens) of over 50 µM and an IC50 ([6]; Homo sapiens, 72 h) of over 50 µM. It also gave an IC50 ([7]; Homo sapiens) of over 50 µM, an IC50 ([8]; Homo sapiens, 72 h) of over 50 µM and an IC50 ([9]; Homo sapiens, 72 h) of over 50 µM. For the same compound, the IC50 ([10]; Homo sapiens, 72 h) was over 50 µM, the IC50 ([11]; Homo sapiens, 72 h) was over 50 µM and the IC50 ([12]; Homo sapiens) was over 50 µM.

In the case of `Nc1nc2c(ncn2[C@H]2C[C@H](O)[C@@H](CO)O2)c(=S)[nH]1` [6thio-2dG, 6-THIO-2dG], the “DRI (Fa=0,5)” value ([1]; in Carbo+Pacli+6thio2dG (10:1:1), GCPA007T2I) is reported as 2.27, the IC50 ([1]; GCPA007T2I, cell viability 72 h after drug application) is reported as over 50 µM and the “DRI (Fa=0,5)” value ([2]; GCPA096T1I, in combination Carbo+Pacli+6thio2dG) is reported as 10.9. For the same compound, the IC50 ([2]; GCPA096T1I, monotherapy) was over 50 µM, the “DRI (Fa=0,5)” value ([3]; GCPA113T1II, drug within Carbo+Pacli+6thio2dG) was 3.71 and the IC50 ([3]; GCPA113T1II, monotherapy) was over 50 µM. For the same compound, the “DRI (Fa=0,5)” value ([13]; GCPA108T3IV, in Carbo+Pacli+6thio2dG) was 6.093, the IC50 ([13]; GCPA108T3IV, monotherapy) was over 50 µM and the “DRI (Fa=0,5)” value ([4]; drug within Carbo+Pacli+6thio2dG) was 4.961. The IC50 ([4]; read-out: IC50 in monotherapy, monotherapy) was over 50 µM, the “DRI (Fa=0,5)” value ([5]; GCPA096T1II, drug within Carbo+Pacli+6thio2dG) was 12.35 and the IC50 ([5]; GCPA096T1II, single drug, unit not given (compared with Cmax/Css in uM)) was over 50 µM. For the same compound, the “DRI (Fa=0,5)” value ([6]; GCPA096T1XVI, in Carbo+Pacli+6thio2dG) was 1.78, the IC50 ([6]; GCPA096T1XVI, monotherapy) was 43.8 µM and the “DRI (Fa=0,5)” value ([7]; GCPA096T1V, drug within Carbo+Pacli+6thio2dG) was 9.08. For the same compound, the IC50 ([7]; GCPA096T1V, single drug, unit not given (compared with Cmax/Css in uM)) was over 50 µM, the “DRI (Fa=0,5)” value ([8]; GCPA113T1I, in Carbo+Pacli+6thio2dG) was 3.54 and the IC50 ([8]; GCPA113T1I, monotherapy) was over 50 µM. The “DRI (Fa=0,5)” value ([9]; GCPA028, in combination Carbo+Pacli+6thio2dG) was 0.16, the IC50 ([9]; GCPA028, monotherapy) was over 50 µM and the “DRI (Fa=0,5)” value ([10]; GCPA113T1III, drug within Carbo+Pacli+6thio2dG) was 4.5. For the same compound, the IC50 ([10]; GCPA113T1III, monotherapy) was over 50 µM, the “DRI (Fa=0,5)” value ([11]; GCPA007T2IV, in combination Carbo+Pacli+6thio2dG) was 0.95 and the IC50 ([11]; GCPA007T2IV, monotherapy) was over 50 µM. For the same compound, the “DRI (Fa=0,5)” value ([12]; GCPA096T1XV, drug within Carbo+Pacli+6thio2dG) was 13.49 and the IC50 ([12]; GCPA096T1XV, single drug, unit not given (compared with Cmax/Css in uM)) was over 50 µM.

For `Cc1nc(Nc2ncc(C(=O)Nc3c(C)cccc3Cl)s2)cc(N2CCN(CCO)CC2)n1` [Dasatinib], the IC50 ([1]; Homo sapiens, 72 h) was over 20 µM, the IC50 ([2]; Homo sapiens, 72 h) was 14.2 µM and the IC50 ([3]; Homo sapiens, 72 h) was over 20 µM. For the same compound, the IC50 ([13]; Homo sapiens, 72 h) was 4.65 µM, the IC50 [4, 16] was 4.77 µM and the IC50 ([5]; Homo sapiens) was over 20 µM. For the same compound, the “Cmax/Css plasma (Log 10)” value [14, 17] was -0.9208 Log 10, the “Cmax/Css plasma (Log 10)” value [14, 18] was -0.9208 Log 10 and the “Cmax/Css plasma (Log 10)” value [14, 19] was -0.9208 Log 10. The “Cmax/Css plasma (Log 10)” value [14, 20] was -0.9208, the “Cmax/Css plasma (Log 10)” value [14, 21] was -0.9208 and the Cmax [14, 22] was 120 nM. The Cmax [14, 23] was 120 nM, the Cmax [14, 19] was 120 nM and the Cmax [14, 24] was 120 nM. For the same compound, the Cmax [14, 25] was 120 nM, the IC50 ([6]; Homo sapiens, 72 h) was over 20 µM and the IC50 ([7]; Homo sapiens) was over 20 µM. It also gave an IC50 ([8]; Homo sapiens, 72 h) of over 20 µM, an IC50 ([9]; Homo sapiens, 72 h) of over 20 µM and an IC50 ([10]; Homo sapiens, 72 h) of 18.1 µM. For the same compound, the IC50 ([11]; Homo sapiens, 72 h) was over 20 µM and the IC50 ([12]; Homo sapiens) was over 20 µM.

In the case of `CO[C@H]1C[C@@H]2CC[C@@H](C)[C@@](O)(O2)C(=O)C(=O)N2CCCC[C@H]2C(=O)O[C@H]([C@H](C)C[C@@H]2CC[C@@H](OCCO)[C@H](OC)C2)CC(=O)[C@H](C)/C=C(\C)[C@@H](O)[C@@H](OC)C(=O)[C@H](C)C[C@H](C)/C=C/C=C/C=C/1C` [Everolimus], the IC50 ([1]; Homo sapiens, 72 h) is listed as 27.8 µM, the “DRI (Fa=0,5)” value ([1]; in Everolimus+Alpelisib (1:2), GCPA007T2I) is listed as 3.15 and the “increase of time to progression” value [15] is listed as 4.1 months. The “reduction of death risk” value [15] was 55%, the “DRI (Fa=0,5)” value ([2]; GCPA096T1I, in combination Everolimus+Alpelisib) was 6.9 and the IC50 ([2]; Homo sapiens, 72 h) was 32.7 µM. The IC50 ([2]; Homo sapiens) was 32.7 µM, the “DRI (Fa=0,5)” value ([3]; GCPA113T1II, drug within Everolimus+Alpelisib) was 11.87 and the IC50 ([3]; Homo sapiens, 72 h) was over 50 µM. For the same compound, the IC50 ([3]; Homo sapiens) was over 50 µM, the “DRI (Fa=0,5)” value ([13]; GCPA108T3IV, in Everolimus+Alpelisib) was 76.7983 and the IC50 ([13]; Homo sapiens, 72 h) was over 50 µM. It also gave an IC50 ([13]; Homo sapiens) of over 50 µM, an IC50 [4, 16] of 45.2 µM and an IC50 ([4]; Homo sapiens, read-out: IC50 in monotherapy) of 45.2 µM. For the same compound, the “DRI (Fa=0,5)” value ([4]; drug within Everolimus+Alpelisib) was 5.131, the “DRI (Fa=0,5)” value ([5]; GCPA096T1II, drug within Everolimus+Alpelisib) was 13.23 and the IC50 ([5]; Homo sapiens) was over 50 µM. For the same compound, the “Cmax/Css plasma (Log 10)” value [14, 17] was -1.19 Log 10, the “Cmax/Css plasma (Log 10)” value [14, 18] was -1.19 Log 10 and the “Cmax/Css plasma (Log 10)” value [14, 19] was -1.19 Log 10. The “Cmax/Css plasma (Log 10)” value [14, 20] was -1.19, the “Cmax/Css plasma (Log 10)” value [14, 21] was -1.19 and the Cmax [14, 22] was 64.6 nM. The Cmax [14, 23] was 64.6 nM, the Cmax [14, 19] was 64.6 nM and the Cmax [14, 24] was 64.6 nM. For the same compound, the Cmax [14, 25] was 64.6 nM, the “DRI (Fa=0,5)” value ([6]; GCPA096T1XVI, in Everolimus+Alpelisib) was 4.73 and the IC50 ([6]; Homo sapiens, 72 h) was 32.8 µM. The IC50 ([6]; Homo sapiens) was 32.8 µM, the “cell lines with some degree of synergy” value (AGCT cell lines) was 9 of the 13 and the “DRI (Fa=0,5)” value ([7]; GCPA096T1V, drug within Everolimus+Alpelisib) was 12.7. For the same compound, the IC50 ([7]; Homo sapiens) was over 50 µM, the “DRI (Fa=0,5)” value ([8]; GCPA113T1I, in Everolimus+Alpelisib) was 20.32 and the IC50 ([8]; Homo sapiens, 72 h) was over 50 µM. For the same compound, the IC50 ([8]; Homo sapiens) was over 50 µM, the “DRI (Fa=0,5)” value ([9]; GCPA028, in combination Everolimus+Alpelisib) was 2.64 and the IC50 ([9]; Homo sapiens, 72 h) was 30.3 µM. The IC50 ([9]; Homo sapiens) was 30.3 µM, the “DRI (Fa=0,5)” value ([10]; GCPA113T1III, drug within Everolimus+Alpelisib) was 23.74 and the IC50 ([10]; Homo sapiens, 72 h) was over 50 µM. For the same compound, the IC50 ([10]; Homo sapiens) was over 50 µM, the “DRI (Fa=0,5)” value ([11]; GCPA007T2IV, in combination Everolimus+Alpelisib) was 1.9 and the IC50 ([11]; Homo sapiens, 72 h) was over 50 µM. The IC50 ([11]; Homo sapiens) was over 50 µM, the “DRI (Fa=0,5)” value ([12]; GCPA096T1XV, drug within Everolimus+Alpelisib) was 16.55 and the IC50 ([12]; Homo sapiens) was over 50 µM.
